The values that follow are results of earlier work, collected in patent publication US7494668B2, “Fast water-dispersible domperidone tablets” (Laboratorio Medinfar-Produtos Farmaceuticos, S.A., priority 2004, dated 2009).

Consider `O=c1[nH]c2ccccc2n1CCCN1CCC(n2c(=O)[nH]c3cc(Cl)ccc32)CC1` [Domperidone, 5-chloro-1-[1-[3-(2-oxo-2,3-dihydro-1H-benzimidazol-1-yl)propyl]piperidine-4-yl]-1,3-dihydro-2H-benzimidazol-2-one], for which the solubility in water result is given as “practically insoluble in water”. Regarding maleate, the solubility in water entry is reported as “soluble in water”.
